Measurements from patent US20240294495A1, “COMPOUNDS THAT MEDIATE PROTEIN DEGRADATION AND METHODS OF USE THEREOF” (Monte Rosa Therapeutics, Inc., priority 2021, published 2024).
pIC50: −log10 of the molar value.

How the values were obtained:
GSPT1 = biological target: T1, GSPT1 (Homo sapiens, UniProt P15170+Q96SW2); assay: Immunofluorescence assay for GSPT1 degradation in CAL-51 cells; assay type: cell-based; conditions: 6 h treatment, read-out: IF Class (GSPT1 degradation, DC50)
T1 construct: CAL-51 cells were purchased from DSMZ (cat. Number ACC302); endogenous in cells; host or cells: CAL-51 (DSMZ ACC302)
T1 sequence (P15170 whole entry): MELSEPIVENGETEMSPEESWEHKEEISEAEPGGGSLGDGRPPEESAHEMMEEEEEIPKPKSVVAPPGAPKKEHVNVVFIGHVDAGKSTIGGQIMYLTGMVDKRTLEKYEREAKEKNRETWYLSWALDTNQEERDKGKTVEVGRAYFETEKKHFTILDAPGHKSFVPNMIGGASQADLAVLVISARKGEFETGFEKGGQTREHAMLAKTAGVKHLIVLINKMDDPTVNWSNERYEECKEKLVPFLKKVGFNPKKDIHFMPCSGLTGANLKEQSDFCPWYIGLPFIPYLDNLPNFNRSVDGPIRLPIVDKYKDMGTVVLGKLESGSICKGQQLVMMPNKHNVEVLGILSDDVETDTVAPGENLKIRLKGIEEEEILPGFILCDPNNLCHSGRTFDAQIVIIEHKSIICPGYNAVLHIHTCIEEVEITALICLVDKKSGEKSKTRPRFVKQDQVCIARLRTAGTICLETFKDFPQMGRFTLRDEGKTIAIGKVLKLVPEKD
T1 sequence (Q96SW2 whole entry): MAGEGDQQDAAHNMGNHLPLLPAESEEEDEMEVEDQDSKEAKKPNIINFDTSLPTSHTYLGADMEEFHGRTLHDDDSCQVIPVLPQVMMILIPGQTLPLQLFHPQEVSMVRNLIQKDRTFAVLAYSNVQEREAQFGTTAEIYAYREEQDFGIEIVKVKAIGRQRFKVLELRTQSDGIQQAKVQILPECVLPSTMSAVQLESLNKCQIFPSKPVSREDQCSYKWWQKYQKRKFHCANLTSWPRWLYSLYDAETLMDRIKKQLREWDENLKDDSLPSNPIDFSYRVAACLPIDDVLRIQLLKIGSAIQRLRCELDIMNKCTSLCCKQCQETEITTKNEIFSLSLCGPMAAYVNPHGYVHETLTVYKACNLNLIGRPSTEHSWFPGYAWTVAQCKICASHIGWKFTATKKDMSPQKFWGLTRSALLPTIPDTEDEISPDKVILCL
T1 sequence (Q16531 2-1140 partner limits assumed): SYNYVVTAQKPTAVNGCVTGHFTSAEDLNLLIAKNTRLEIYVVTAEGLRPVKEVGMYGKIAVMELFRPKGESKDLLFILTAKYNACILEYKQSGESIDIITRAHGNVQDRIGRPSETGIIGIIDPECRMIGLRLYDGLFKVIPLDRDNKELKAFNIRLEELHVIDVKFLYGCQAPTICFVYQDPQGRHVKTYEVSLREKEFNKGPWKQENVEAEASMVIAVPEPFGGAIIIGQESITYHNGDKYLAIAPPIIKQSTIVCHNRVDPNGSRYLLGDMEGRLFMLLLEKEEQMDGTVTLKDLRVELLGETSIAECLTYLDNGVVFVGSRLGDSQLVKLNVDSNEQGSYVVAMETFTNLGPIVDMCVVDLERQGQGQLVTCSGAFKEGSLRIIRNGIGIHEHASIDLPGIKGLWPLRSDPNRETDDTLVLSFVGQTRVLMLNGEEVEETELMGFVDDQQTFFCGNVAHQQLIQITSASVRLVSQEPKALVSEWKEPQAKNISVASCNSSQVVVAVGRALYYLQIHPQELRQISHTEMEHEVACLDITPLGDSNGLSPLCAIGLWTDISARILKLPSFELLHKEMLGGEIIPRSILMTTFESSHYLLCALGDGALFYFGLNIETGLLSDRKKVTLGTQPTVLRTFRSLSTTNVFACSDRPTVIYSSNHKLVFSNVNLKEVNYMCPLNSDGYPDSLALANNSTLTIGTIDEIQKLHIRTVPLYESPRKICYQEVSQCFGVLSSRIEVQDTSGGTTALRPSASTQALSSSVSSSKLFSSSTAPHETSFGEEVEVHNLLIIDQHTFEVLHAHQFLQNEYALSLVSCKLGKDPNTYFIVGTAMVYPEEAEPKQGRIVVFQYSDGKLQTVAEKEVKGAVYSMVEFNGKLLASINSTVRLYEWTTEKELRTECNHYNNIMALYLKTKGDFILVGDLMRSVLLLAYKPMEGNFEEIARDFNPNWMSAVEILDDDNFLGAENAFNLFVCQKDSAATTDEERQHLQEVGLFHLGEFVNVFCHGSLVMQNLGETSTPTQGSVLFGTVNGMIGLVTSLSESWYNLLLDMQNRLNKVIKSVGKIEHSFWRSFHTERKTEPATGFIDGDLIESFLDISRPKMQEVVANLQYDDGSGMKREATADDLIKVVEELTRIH
Experimental: The representative compounds were tested in an immunofluorescence assay for their activity to degrade GSPT1. CAL-51 cells were purchased from DSMZ (cat. Number ACC302), sub-cultured in 90% Dulbecco's MEM (4.5 g/L glucose, Gibco 11965)+10% heat inactivated FBS (BioConcept, 2-01F136I) and incubated at 37° C., 5% CO2. For the assay imaging microtiter plate Cell Carrier 96 Ultra (Perkin Elmer 6055302) were pre-coated with Fibronectin (Sigma F085, 30 μl at 0.2 μg/mL) in PBS (100 μL, Gibco 14190) for 45 min at room temperature, rinsed with PBS and CAL-51 cells (30K cells/well) were plated and let to adhere overnight. Cells were treated with compounds typically using a serial dilution ranging from 30 μM to 0.1 nM for 6 h. Compounds were stored at 10 mM DMSO stocks. Vehicle (DMSO), positive (CC-885, 10 μM) and rescue controls (positive control plus 0.2 μM bortezomib) were also included at this stage. Cells were subsequently rinsed with PBS and fixed in 10% Formalin solution (50 μl, Sigma HT5011)) for 20 min at room temperature. Following three consecutive PBS washes (100 μL), cells were permeabilized in 0.1% Triton X-100 in PBS (Sigma 93443, 50 μl) for 15 min at room temperature. Following three further PBS washes, 50 μl blocking buffer (1% BSA, Sigma A4503, in PBS) was added for 45 min for signal-to noise reduction. Primary antibody (human GSPT1, Sigma HPA052488) was diluted in blocking buffer (dil.1/300, 35 μL/well) and incubated with the cells overnight at 4° C. After three PBS washes, Alexa-fluor 488 coupled secondary antibodies (Invitrogen, A32731, dil.1/1000), Alexa-fluor 647-Phalloidin (Invitrogen, A22287, dil.1/200) and DAPI (Thermo, #62248, dil.1/1000) were diluted in blocking buffer and incubated with the samples for 2 h at room temperature. After three final PBS washes, samples were conserved in 100 μL PBS in the dark, until measurement. Image acquisition was performed on the Operetta High-Content Imager (Perkin-Elmer). Fluorescence intensity of […] (GSPT1), Alexa-Fluor 647 (Actin) and DAPI (Nucleus) were measured. For the determination of GSPT1 DC50 values, a custom algorithm implemented in the PerkinElmer image analysis software Harmony-Acapella® was developed. After user-defined setting of adjustment parameters, the analysis was run identically without human intervention for all image fields. DAPI staining of the nuclei was used to determine the location of cells using standard nuclei detection modules. Segmentation artifacts were removed by threshold-based filters for area, roundness and intensity. The outline of the cells was determined analogously from the sum of the normalized, smoothed DAPI and Actin channel, starting from each nucleus. The Alexa-Fluor 488 (GSPT1) signal intensity in each cell was finally measured, in order to obtain a Mean intensity per cell. GSPT1 degradation (DC50) was calculated after normalization to controls and data import in CDD vault Database, using non-linear regression.
(§1) In Table 2, each compound is assigned a class (HTRF class) indicating the ability for Cereblon binding by means of their HTRF IC50 values according to Example 3: A, B or C. According to the code, A represents an IC50 value of <100 nM, B represents an IC50 value>100 nM and <1000 nM, C represents an IC50 value>1000 nM. IF Class assigns each compound a code indicating the ability for GSPT1 degradation: A, B or C. According to the code, A represents a DC50 value of <30 nM, B represents a DC50 value>30 nM and <300 nM and C represents a DC50 value of >300 nM.

CRBN-DDB1 = CRBN-DDB1 (Homo sapiens, UniProt Q96SW2); assay: Compound binding to CRBN by HTRF assay; conditions: CRBN-DDB1 2.5 nM, Cy5-Thalidomide 100 nM probe, 30 min incubation; read-out: HTRF Class (Cereblon binding, HTRF IC50)
CRBN-DDB1, sequence (Q96SW2 whole entry): as the sequence (Q96SW2 whole entry) above
CRBN-DDB1, sequence (Q16531 whole entry partner): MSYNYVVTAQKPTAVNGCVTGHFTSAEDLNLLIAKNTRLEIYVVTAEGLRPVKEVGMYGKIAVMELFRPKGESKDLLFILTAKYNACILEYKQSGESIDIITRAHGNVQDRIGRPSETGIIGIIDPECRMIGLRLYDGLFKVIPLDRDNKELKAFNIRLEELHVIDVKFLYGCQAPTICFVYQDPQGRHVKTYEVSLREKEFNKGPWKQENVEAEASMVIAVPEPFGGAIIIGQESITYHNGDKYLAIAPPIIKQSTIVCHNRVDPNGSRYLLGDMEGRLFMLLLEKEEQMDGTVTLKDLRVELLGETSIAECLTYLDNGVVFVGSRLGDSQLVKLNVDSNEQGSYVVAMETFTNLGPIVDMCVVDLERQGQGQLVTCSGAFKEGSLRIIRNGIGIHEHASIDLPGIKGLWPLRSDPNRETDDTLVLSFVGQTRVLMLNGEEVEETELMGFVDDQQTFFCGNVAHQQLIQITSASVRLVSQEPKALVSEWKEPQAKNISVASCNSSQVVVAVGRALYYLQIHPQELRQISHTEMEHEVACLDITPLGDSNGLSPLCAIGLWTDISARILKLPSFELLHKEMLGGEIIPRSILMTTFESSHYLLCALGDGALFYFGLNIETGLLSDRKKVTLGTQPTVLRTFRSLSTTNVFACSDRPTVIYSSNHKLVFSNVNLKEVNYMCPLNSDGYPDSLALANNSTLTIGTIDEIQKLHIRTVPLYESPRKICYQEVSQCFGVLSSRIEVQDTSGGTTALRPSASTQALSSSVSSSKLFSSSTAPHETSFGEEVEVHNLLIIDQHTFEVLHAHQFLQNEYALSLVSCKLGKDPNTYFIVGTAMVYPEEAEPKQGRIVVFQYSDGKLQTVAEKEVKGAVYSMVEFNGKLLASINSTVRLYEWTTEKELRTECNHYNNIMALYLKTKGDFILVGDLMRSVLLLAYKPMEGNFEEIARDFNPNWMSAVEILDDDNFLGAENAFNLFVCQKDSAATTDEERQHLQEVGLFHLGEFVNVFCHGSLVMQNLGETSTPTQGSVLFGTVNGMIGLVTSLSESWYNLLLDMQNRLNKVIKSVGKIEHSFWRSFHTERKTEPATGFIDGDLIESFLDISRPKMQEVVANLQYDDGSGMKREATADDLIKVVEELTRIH
Experimental: Compound activity was monitored in a Homogenous Time-Resolved Fluorescence (HTRF) assay using 1-[5-({2-[2-(2-{[2-(2,6-dioxopiperidin-3-yl)-1,3-dioxo-2,3-dihydro-1H-isoindol-4-yl]oxy}acetamido)ethoxy]ethyl}carbamoyl)pentyl]-3,3-dimethyl-2-[(1E,3E)-5-[(2E)-1,3,3-trimethyl-5-sulfo-2,3-dihydro-1H-indol-2-ylidene]penta-1,3-dien-1-yl]-3H-indol-1-ium-5-sulfonate as a fluorescent probe. Biochemical assays were conducted in Greiner white 384 well HiBase plates (Cat. No 784075-25) in 10 μL total volume. A one pot detection solution of CRBN-DDB1 (2.5 nM), Anti-His Terbium Cryptate Gold (1×, PerkinElmer Cat. #: 61HI2TLB), and Cy5-Thalidomide (100 nM, Tenova Cat.: T52461) was prepared in 20 mM HEPES, 20 mM NaCl, 0.2 mM TCEP, 0.2 mM EDTA, and 0.005% Tween20 was dispensed to each assay plate. Compounds were stored in dry, ambient temperatures at 10 mM. A 10-point, 1:3 dilution series was prepared from 10 mM stock concentrations in Echo-compatible LDV plates. 10 nL of each compound dilution series was dispensed into assays wells using an Echo 650 (Labcyte inc. USA). 10 nL of 10 mM Lenalidomide was transferred into the active-control wells for the assay and 10 nL of DMSO was transferred into the neutral-control wells. The assay was then allowed to incubate for 30 min at ambient temperature after transferring compound. Plate measurements were taken on a Pherastar FSX (BMG Labtech, Germany) using the HTRF Red filter (Ex. 337 nm, em1: 620 nm, em2: 665 nm) (Flashes: 50, Integration time: 60-400 us, Z-height: 10 mm, Ratio-multiplier: 10,000). The HTRF signal was then subsequently normalized to the neutral and active controls. Analysis and IC50 values were derived using KNIME analytics (KNIME Zurich) transformation and fitting within Collaborative Drug Discovery (Collaborative Drug Discovery USA). Ki was derived from the geometric mean of the IC50 values using the Cheng-Prustoff transformation.
as §1

DC50 (GSPT1) | pIC50 (CRBN-DDB1) | Compound
> 300 nM | 6.00 to 7.00 | Cc1cc(CC(=O)NC2CN(c3cc(F)c(C4CCC(=O)NC4=O)c(F)c3)C2)cc(C)n1 (stereo not drawn) [Compound 49, 2-(2,6-dimethylpyridin-4-yl)-N-(1-(4-(2,6-dioxopiperidin-3-yl)-3,5-difluorophenyl)azetidin-3-yl)acetamide]
> 300 nM | 6.00 to 7.00 | O=C1CCC(c2c(F)cc(N3CC(NC(=O)Cc4ccc(Cl)cc4)C3)cc2F)C(=O)N1 (stereo not drawn) [Compound 36, 2-(4-chlorophenyl)-N-(1-(4-(2,6-dioxopiperidin-3-yl)-3,5-difluorophenyl)azetidin-3-yl)acetamide]
> 300 nM | 6.00 to 7.00 | O=C1CCC(c2c(F)cc(N3CC(NC(=O)Cc4cc(F)cc(OC(F)F)c4)C3)cc2F)C(=O)N1 (stereo not drawn) [Compound 26, 2-(3-(difluoromethoxy)-5-fluorophenyl)-N-(1-(4-(2,6-dioxopiperidin-3-yl)-3,5-difluorophenyl)azetidin-3-yl)acetamide]
> 300 nM | 6.00 to 7.00 | Cc1cc(C)cc(C(F)(F)C(=O)NC2CN(c3cc(F)c(C4CCC(=O)NC4=O)c(F)c3)C2)c1 (stereo not drawn) [Compound 50, 2-(3,5-dimethylphenyl)-N-(1-(4-(2,6-dioxopiperidin-3-yl)-3,5-difluorophenyl)azetidin-3-yl)-2,2-difluoroacetamide]
< 30 nM | < 6.00 | Cc1ccc(NC(=O)CC2CN(c3cc(F)c(C4CCC(=O)NC4=O)c(F)c3)C2)cc1Cl (stereo not drawn) [Compound 40, N-(3-chloro-4-methylphenyl)-2-(1-(4-(2,6-dioxopiperidin-3-yl)-3,5-difluorophenyl)azetidin-3-yl)acetamide]
> 300 nM | 6.00 to 7.00 | Cc1nc(CC(=O)NC2CN(c3cc(F)c(C4CCC(=O)NC4=O)c(F)c3)C2)ccc1Cl (stereo not drawn) [Compound 25, 2-(5-chloro-6-methylpyridin-2-yl)-N-(1-(4-(2,6-dioxopiperidin-3-yl)-3,5-difluorophenyl)azetidin-3-yl)acetamide]
> 300 nM | > 7.00 | C[C@@H]1CCCN1c1ccc(CC(=O)NC2CN(c3cc(F)c(C4CCC(=O)NC4=O)c(F)c3)C2)cn1 (stereo partly drawn) [Compound 19, N-(1-(4-(2,6-dioxopiperidin-3-yl)-3,5-difluorophenyl)azetidin-3-yl)-2-(6-((R)-2-methylpyrrolidin-1-yl)pyridin-3-yl)acetamide]
30 to 300 nM | 6.00 to 7.00 | COc1cc(Cl)ccc1CC(=O)NC1CN(c2cc(F)c(C3CCC(=O)NC3=O)c(F)c2)C1 (stereo not drawn) [Compound 27, 2-(4-chloro-2-methoxyphenyl)-N-(1-(4-(2,6-dioxopiperidin-3-yl)-3,5-difluorophenyl)azetidin-3-yl)acetamide]
> 300 nM | 6.00 to 7.00 | N#Cc1ccc(CC(=O)NC2CN(c3cc(F)c(C4CCC(=O)NC4=O)c(F)c3)C2)c(F)c1 (stereo not drawn) [Compound 47, 2-(4-cyano-2-fluorophenyl)-N-(1-(4-(2,6-dioxopiperidin-3-yl)-3,5-difluorophenyl)azetidin-3-yl)acetamide]
30 to 300 nM | 6.00 to 7.00 | Cc1cc(CC(=O)NC2CN(c3ccc(C4CCC(=O)NC4=O)c(Cl)c3)C2)ccc1Cl (stereo not drawn) [Compound 33, 2-(4-chloro-3-methylphenyl)-N-(1-(3-chloro-4-(2,6-dioxopiperidin-3-yl)phenyl)azetidin-3-yl)acetamide]

The next lines start with the compound.

Compound | DC50 (GSPT1) | pIC50 (CRBN-DDB1)
O=C1CCC(c2c(F)cc(N3CC(CC(=O)Nc4ccc(F)c(OC(F)F)c4)C3)cc2F)C(=O)N1 (stereo not drawn) [Compound 6, N-(3-(difluoromethoxy)-4-fluorophenyl)-2-(1-(4-(2,6-dioxopiperidin-3-yl)-3,5-difluorophenyl)azetidin-3-yl)acetamide] | 30 to 300 nM | 6.00 to 7.00
Cc1c(Cl)cc(CC(=O)NC2CN(c3cc(F)c(C4CCC(=O)NC4=O)c(F)c3)C2)cc1CN1CCOCC1 (stereo not drawn) [Compound 18, 2-(3-chloro-4-methyl-5-(morpholinomethyl)phenyl)-N-(1-(4-(2,6-dioxopiperidin-3-yl)-3,5-difluorophenyl)azetidin-3-yl)acetamide] | < 30 nM | 6.00 to 7.00
O=C1CCC(c2c(F)cc(N3CC(NC(=O)Cc4cc(Cl)c(F)cc4F)C3)cc2F)C(=O)N1 (stereo not drawn) [Compound 4, 2-(5-chloro-2,4-difluorophenyl)-N-(1-(4-(2,6-dioxopiperidin-3-yl)-3,5-difluorophenyl)azetidin-3-yl)acetamide] | < 30 nM | 6.00 to 7.00
O=C1CCC(c2c(F)cc(N3CC(NC(=O)Cc4ccc(F)cc4F)C3)cc2F)C(=O)N1 (stereo not drawn) [Compound 11, 2-(2,4-difluorophenyl)-N-(1-(4-(2,6-dioxopiperidin-3-yl)-3,5-difluorophenyl)azetidin-3-yl)acetamide] | < 30 nM | 6.00 to 7.00
O=C1CCC(c2c(F)cc(N3CC(NC(=O)Cc4ccc(F)c(F)c4)C3)cc2F)C(=O)N1 (stereo not drawn) [Compound 17, 2-(3,4-difluorophenyl)-N-(1-(4-(2,6-dioxopiperidin-3-yl)-3,5-difluorophenyl)azetidin-3-yl)acetamide] | > 300 nM | 6.00 to 7.00
O=C1CCC(c2c(F)cc(N3CC(NC(=O)Cc4ccc(F)c(Cl)c4)C3)cc2F)C(=O)N1 (stereo not drawn) [Compound 13, 2-(3-chloro-4-fluorophenyl)-N-(1-(4-(2,6-dioxopiperidin-3-yl)-3,5-difluorophenyl)azetidin-3-yl)acetamide] | > 300 nM | 6.00 to 7.00
O=C1CCC(c2c(F)cc(N3CC(NC(=O)Cc4cc(Cl)ccc4F)C3)cc2F)C(=O)N1 (stereo not drawn) [Compound 12, 2-(5-chloro-2-fluorophenyl)-N-(1-(4-(2,6-dioxopiperidin-3-yl)-3,5-difluorophenyl)azetidin-3-yl)acetamide] | 30 to 300 nM | > 7.00
Cc1cc(NC(=O)CC2CN(c3cc(F)c(C4CCC(=O)NC4=O)c(F)c3)C2)ccc1Cl (stereo not drawn) [Compound 3, N-(4-chloro-3-methylphenyl)-2-(1-(4-(2,6-dioxopiperidin-3-yl)-3,5-difluorophenyl)azetidin-3-yl)acetamide] | < 30 nM | 6.00 to 7.00
